Like-named read-outs stand apart in the source and are kept apart here.
Legend:
[1] = test system: Cullin-3 (CUL3) neddylation; test: AlphaLISA assay for Cullin-3 (CUL3) neddylation in TF 1 cells; format: cell-based; settings: Homo sapiens, TF-1, 3 h, 3 hours treatment
In short: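 Neddylated CUL3 was quantified by AlphaLISA in lysates of TF 1 cells exposed for 3 h to test compound in IMDM without supplements. Percent inhibition set between vehicle and 1 μM DI-1548 positive control; IC50 derived by Hill-equation fitting of dose-response curves.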

[2] = molecular target: T1, DCN1 (DCUND1) protein PONY domain (Homo sapiens (Human), UniProt Q96GG9); test: TR-FRET assay, DCN1 binding with FAM-labeled probe
T1 sequence (Q96GG9 60-248): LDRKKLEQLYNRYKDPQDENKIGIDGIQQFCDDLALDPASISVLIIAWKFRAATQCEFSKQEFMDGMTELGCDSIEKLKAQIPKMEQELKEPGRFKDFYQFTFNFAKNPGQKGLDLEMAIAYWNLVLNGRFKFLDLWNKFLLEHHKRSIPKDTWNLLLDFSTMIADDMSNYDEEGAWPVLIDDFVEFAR
In short: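 Tb-DCN1 PONY domain (E. coli, biotin/streptavidin-Tb); FAM-labelled non-covalent inhibitor probe; TritonX buffer, 200 mM NaCl; 5 nM DCN1 + 20 nM probe or 0.31 nM DCN1 + 900 nM total probe; 0.1% DMSO; TR-FRET read 1, 5, 24 hrs.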

[3] = molecular target: T1, DCN1 (DCUND1) protein PONY domain; test: Off-rate measurement of reversible covalent molecules (jump dilution TR-FRET with Cy5 probe); format: binding; settings: for Category: binding mode category from off-rate assay; for residence time: inverse of rate constant K; for residence time / half-life: jump dilution TR-FRET; for koff: jump dilution, Cy5 covalent probe 150 nM, TR-FRET; for half-life: ln(2)/K
Excerpt: A typical covalent compound is assumed to stay bound to a protein for at least the life of that protein in the cell. In reality, there is a range of how long a covalent compounds remains bound before a reverse reaction takes place. Thus, some covalent bonds can be labeled as reversible as their reverse reaction takes place in a measurable amount of time under physiological conditions. The assay capitalizes on the range of covalent binders by using a high affinity covalent binder as a probe to displace the more reversible binders in an adaptation of the jump dilution method.
In this version of the jump dilution method, the increase in covalent probe binding over time was measured through a TR-FRET reaction between the covalent probe and the biotinylated target protein.
The recombinant form of the DCN1 (DCUND1) protein PONY domain was produced using an E. coli expression system at Viva Biotech (China). The DCN1 protein was biotinylated (EZ sulfo-NHS-LC-biotin; Thermofisher) for labeling with streptavidin terbium (Tb) cryptate in the reaction. This biotinylated protein was used in two forms of the TR-FRET assay as described below.
The off-rate measurement is executed in two steps based on the jump dilution method. […] The greatest dilution allowed within the constraints of the assay was chosen. These factors allow a competitive advantage for the covalent probe to replace the test compound when that compound releases from the target protein. The actual measure is the rate of increased TR-FRET signal as the covalent probe replaces the test compound over time. […] The resulting time dependent curve of the TR-FRET signal is fit to the following equation:
Y=Y0+(Plateau−Y0)*(1−exp(−K*x))
K is the rate constant (1/unit of time). The residence time is defined as the inverse of K, the rate constant. The half-life is calculated as ln(2)/K.

DCN1 protein = DCN1 protein (Homo sapiens (Human), UniProt Q96GG9); test: Intact Protein MS Analysis with the RapidFire-TOF System (covalent adduct formation); format: binding; settings: MS Emax; 400 nM DCN1, 3 hours at room temperature
Sequence of DCN1 protein (Q96GG9 whole entry): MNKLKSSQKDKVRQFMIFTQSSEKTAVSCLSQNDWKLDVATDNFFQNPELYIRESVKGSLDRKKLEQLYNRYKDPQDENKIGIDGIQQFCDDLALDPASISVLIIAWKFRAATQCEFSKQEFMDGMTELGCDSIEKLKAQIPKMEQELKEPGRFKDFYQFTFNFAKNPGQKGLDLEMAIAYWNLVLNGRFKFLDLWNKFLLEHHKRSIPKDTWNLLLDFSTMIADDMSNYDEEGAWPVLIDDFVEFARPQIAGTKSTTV
In short: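 Tag-cleaved human DCN1 (400 nM) expressed in E. coli, in 25 mM Tris-HCl, 200 mM NaCl, 1 mM DTT, was incubated with 11 compound concentrations for 3 h at room temperature and quenched with 0.2% formic acid. Intact-protein Q-TOF MS with deconvolution detected the compound adduct mass.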

[4] = test system: fetal hemoglobin gene HBG1; test: HBG1 Nanostring Assay in CD34+ HSPC erythroid differentiation culture; format: cell-based, human; settings: for Nanostring Ymax obs (%): relative to a control compound (C1); for EC50: Homo sapiens, 240 h, HBG1 induction, Day10 of erythroid differentiation
In short: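 HBG1 counts came from direct nCounter hybridization (67° C, 22 h) of day-10 lysates, normalized to ERCC positive controls and a housekeeping gene, giving EC50 and Ymax versus a reference compound. Compounds in 0.1% DMSO were present from day −2 while cells underwent EPO/SCF/IL-3 erythroid differentiation, with IL-3 dropped at day 7, at 37° C.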

[5] = 24 hr after treatment with compound, read-out: TR FRET IC50 24 hr
[6] = read-out: TR FRET IC50 1 hr, 1 hr after treatment with compound
[7] = TR FRET IC50 1 hr (nM), 1 hr after treatment with compound

Row | Structure (SMILES) | IC50 [1] | IC50 [2, 5] | IC50 [2, 6] | Category [3] | residence time [3] | koff [3] | half-life [3] | IC50 [2, 7] | % Adduct Formation (DCN1 protein) | Nanostring Ymax obs (%) [4] | EC50 [4]
1 | CCN1C(=O)[C@@H](NC(=O)c2cccc(C(F)(F)F)c2)[C@@H](c2ccc(F)cc2)c2c(C(=O)N3CCS(=O)(=O)C[C@H]3C#N)nn(C3CCOCC3)c21 (mixture of isomers) [Compound I-436] | ≤ 100 nM | ≤ 200 nM | ≤ 200 nM | reversible covalent | 76.7 min | 0.000238 s⁻¹ | 53.14 min |  |  |  | 
2 | CCN1C(=O)[C@@H](NC(=O)c2cccc(C(F)(F)F)c2)[C@@H](C2CC2)c2c(C(=O)N3CCN(C)C[C@H]3C#N)nn(C3CCOCC3)c21 (single isomer, unassigned) [Compound I-430] | ≤ 100 nM | ≤ 200 nM |  | slow reversible |  |  |  | 200 to 1000 nM |  |  | 
3 | CCN1C(=O)[C@@H](NC(=O)c2cccc(C(F)(F)F)c2)[C@@H](c2ccc(F)cc2)c2c(C(=O)NCC#N)nn(-c3ccccc3)c21 [Compound I-148] | 100 to 1000 nM | 200 to 1000 nM |  |  |  |  |  | 1000 to 3000 nM | +++ (MS Emax % adduct formation greater than 80.0 and less than or equal to 100.0) | + (Nanostring Ymax greater than or equal to 0.0 and less than or equal to 50.0) | 
4 | C=C(C(=O)O)c1nn(-c2ccccc2)c2c1[C@H](c1ccc(F)cc1)[C@H](NC(=O)c1cccc(C(F)(F)F)c1)C(=O)N2CC [Compound I-153, 2-((4S,5S)-7-ethyl-4-(4-fluorophenyl)-6-oxo-1-phenyl-5-(3-(trifluoromethyl)benzamido)-4,5,6,7-tetrahydro-1H-pyrazolo[3,4-b]pyridin-3-yl)acrylic acid] | ≤ 100 nM | ≤ 200 nM |  |  |  |  |  | 200 to 1000 nM | ++ (MS Emax % adduct formation greater than 30.0 and less than or equal to 80.0) | ++ (Nanostring Ymax greater than 50.0 and less than or equal to 100.0) | 100 to 1000 nM
5 | C[C@@H](NC#N)c1nn(-c2ccccc2)c2c1[C@H](c1ccc(F)cc1)[C@H](NC(=O)c1cccc(C(F)(F)F)c1)C(=O)N2CCO [Compound I-274] | ≤ 100 nM | ≤ 200 nM | ≤ 200 nM |  |  |  |  |  | +++ (MS Emax % adduct formation greater than 80.0 and less than or equal to 100.0) | + (Nanostring Ymax greater than or equal to 0.0 and less than or equal to 50.0) | 
6 | CCN1C(=O)[C@@H](NC(=O)c2cccc(C(F)(F)F)c2)[C@@H](c2ccc(F)cc2)c2c(C(=O)N3C[C@H](OC)C[C@H]3C#N)nn(C3CCOCC3)c21 [Compound I-358] | ≤ 100 nM | ≤ 200 nM | ≤ 200 nM |  |  |  |  |  | +++ (MS Emax % adduct formation greater than 80.0 and less than or equal to 100.0) | +++ (Nanostring Ymax greater than 100.0) | ≤ 100 nM
7 | CCN1C(=O)[C@@H](NC(=O)c2cccc(C(F)(F)F)c2)[C@@H](c2ccc(F)cc2)c2c(C(=O)N3CC[C@H](OC)[C@H]3C#N)nn(C3CCOCC3)c21 [Compound I-359] | ≤ 100 nM | ≤ 200 nM | ≤ 200 nM |  |  |  |  |  | +++ (MS Emax % adduct formation greater than 80.0 and less than or equal to 100.0) | +++ (Nanostring Ymax greater than 100.0) | ≤ 100 nM
8 | CCN1C(=O)[C@@H](NC(=O)c2cccc(C(F)(F)F)c2)[C@@H](c2ccc(F)cc2)c2c(C(=O)N3C[C@H](F)C[C@H]3C#N)nn(C3CCOCC3)c21 [Compound I-360] | ≤ 100 nM | ≤ 200 nM | ≤ 200 nM |  |  |  |  |  | +++ (MS Emax % adduct formation greater than 80.0 and less than or equal to 100.0) | +++ (Nanostring Ymax greater than 100.0) | ≤ 100 nM
9 | CCN1C(=O)[C@@H](NC(=O)c2cccc(C(F)(F)F)c2)[C@@H](c2ccc(F)cc2)c2c(C(=O)N3CC(F)(F)C[C@H]3C#N)nn(C3CCOCC3)c21 [Compound I-361] | ≤ 100 nM | ≤ 200 nM | ≤ 200 nM |  |  |  |  |  | +++ (MS Emax % adduct formation greater than 80.0 and less than or equal to 100.0) | +++ (Nanostring Ymax greater than 100.0) | ≤ 100 nM
10 | CCN1C(=O)[C@@H](NC(=O)c2cccc(C(F)(F)F)c2)[C@@H](c2ccc(F)cc2)c2c(C(=O)N3[C@H](C#N)C[C@H]4C[C@H]43)nn(C3COC3)c21 [Compound I-362, N-((4S,5S)-3-((1R,3S,5R)-3-cyano-2-azabicyclo[3.1.0]hexane-2-carbonyl)-7-ethyl-4-(4-fluorophenyl)-1-(oxetan-3-yl)-6-oxo-4,5,6,7-tetrahydro-1H-pyrazolo[3,4-b]pyridin-5-yl)-3-(trifluoromethyl)benzamide] | ≤ 100 nM | ≤ 200 nM | ≤ 200 nM |  |  |  |  |  | +++ (MS Emax % adduct formation greater than 80.0 and less than or equal to 100.0) | ++ (Nanostring Ymax greater than 50.0 and less than or equal to 100.0) | ≤ 100 nM
11 | CCN1C(=O)[C@@H](NC(=O)c2cccc(C(F)(F)F)c2)[C@@H](c2ccc(F)cc2)c2c(C(=O)N3CCNC[C@@H]3C#N)nn(C3CCOCC3)c21 [Compound I-364] | ≤ 100 nM | ≤ 200 nM | ≤ 200 nM |  |  |  |  |  | +++ (MS Emax % adduct formation greater than 80.0 and less than or equal to 100.0) | ++ (Nanostring Ymax greater than 50.0 and less than or equal to 100.0) | ≤ 100 nM
12 | CCN1C(=O)[C@@H](NC(=O)c2cccc(C(F)(F)F)c2)[C@@H](C2CC2)c2c(C(=O)N(C)CC#N)nn(C3CCOCC3)c21 [Compound I-374] | ≤ 100 nM | ≤ 200 nM |  |  |  |  |  | 200 to 1000 nM | +++ (MS Emax % adduct formation greater than 80.0 and less than or equal to 100.0) | +++ (Nanostring Ymax greater than 100.0) | ≤ 100 nM
13 | CCN1C(=O)[C@@H](NC(=O)c2cccc(C(F)(F)F)c2)[C@@H](C2CC2)c2c(C(=O)N3CC(F)(F)C[C@H]3C#N)nn(C3CCOCC3)c21 [Compound I-378] | ≤ 100 nM | ≤ 200 nM | ≤ 200 nM |  |  |  |  |  | +++ (MS Emax % adduct formation greater than 80.0 and less than or equal to 100.0) | ++ (Nanostring Ymax greater than 50.0 and less than or equal to 100.0) | ≤ 100 nM
14 | CCN1C(=O)[C@@H](NC(=O)c2cccc(C(F)(F)F)c2)[C@@H](C2CC2)c2c(C(=O)N3CS(=O)(=O)C[C@@H]3C#N)nn(C3CCOCC3)c21 [Compound I-560] | ≤ 100 nM | ≤ 200 nM | ≤ 200 nM | fast reversible | 44.1 min | 0.000378 s⁻¹ | 30.54 min |  |  |  | 
15 | CCN1C(=O)[C@@H](NC(=O)c2cccc(C(F)(F)F)c2)[C@@H](C2CC2)c2c(C(=O)N3CC[C@H]3C#N)nn(C3CCOCC3)c21 [Compound I-660] | ≤ 100 nM | ≤ 200 nM | ≤ 200 nM | reversible covalent | 266 min | 6.28e-05 s⁻¹ | 184.2 min |  |  |  | 

— patent publication US20250163057A1, “DCN-1 MODULATING COMPOUNDS AND METHODS OF USE THEREOF” (Cellarity, Inc., priority 2023, published 2025)
